Measurements reported in ChEMBL document CHEMBL1156230, “Identification of phenylsulfone-substituted quinoxaline (WYE-672) as a tissue selective liver X-receptor (LXR) agonist” (J Med Chem, 2010).
Active and inactive are the calls of the source. No cut-off for these calls is given here.

Tests used:
[1] = Plasma concentration in high fat/high cholesterol fed LDLR-deficient mouse administered with diet for 8 weeks measured after 3 hrs of last dose; format: ADME, organism-based; conditions: po
Mus musculus [2] = experiment: Antiatherosclerotic activity against high fat/high cholesterol fed LDLR-deficient mouse assessed as IPl gene regulation at 3 mg/kg administered with diet for 7 days by Experion chip analysis; format: functional, organism-based; design: dose 3 mg/kg
Mus musculus [3] = experiment: Antiatherosclerotic activity against high fat/high cholesterol fed LDLR-deficient mouse assessed as pltp gene regulation at 3 mg/kg administered with diet for 7 days by Experion chip analysis; format: functional, organism-based; design: dose 3 mg/kg
[4] = Half life in C57 mouse at 10 mg/kg, po; format: ADME, organism-based; design: dose 10 mg/kg, route oral; conditions: in vivo
[5] = molecular target: T1, Peroxisome proliferator-activated receptor delta (Homo sapiens) (UniProt Q03181); experiment: Binding affinity to PPARdelta
T1 sequence (whole entry): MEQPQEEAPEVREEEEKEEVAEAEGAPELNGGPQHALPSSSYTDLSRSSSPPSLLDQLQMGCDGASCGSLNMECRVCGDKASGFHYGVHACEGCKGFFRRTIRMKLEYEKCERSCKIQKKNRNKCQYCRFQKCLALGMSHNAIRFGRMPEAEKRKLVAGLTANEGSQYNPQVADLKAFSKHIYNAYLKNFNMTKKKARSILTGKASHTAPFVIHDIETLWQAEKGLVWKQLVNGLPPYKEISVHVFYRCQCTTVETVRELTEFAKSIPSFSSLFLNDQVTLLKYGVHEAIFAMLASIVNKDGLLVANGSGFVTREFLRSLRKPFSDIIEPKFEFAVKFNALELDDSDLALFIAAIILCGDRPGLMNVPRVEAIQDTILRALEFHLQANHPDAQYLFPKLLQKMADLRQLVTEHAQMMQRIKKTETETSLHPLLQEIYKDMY

[6] = Binding affinity to thyroid hormone receptor
[7] = molecular target: Oxysterols receptor LXR-beta (Homo sapiens, UniProt P55055)
THP-1 [8] = experiment: cells; conditions: Homo sapiens
THP-1 [9] = experiment: Induction of [3H]cholesterol efflux in human THP1 cells
HepG2 = experiment: Agonist activity at LXR in human HepG2 cells assessed as lipid accumulation relative to T0901317

Chain of Oxysterols receptor LXR-beta (P55055 whole entry): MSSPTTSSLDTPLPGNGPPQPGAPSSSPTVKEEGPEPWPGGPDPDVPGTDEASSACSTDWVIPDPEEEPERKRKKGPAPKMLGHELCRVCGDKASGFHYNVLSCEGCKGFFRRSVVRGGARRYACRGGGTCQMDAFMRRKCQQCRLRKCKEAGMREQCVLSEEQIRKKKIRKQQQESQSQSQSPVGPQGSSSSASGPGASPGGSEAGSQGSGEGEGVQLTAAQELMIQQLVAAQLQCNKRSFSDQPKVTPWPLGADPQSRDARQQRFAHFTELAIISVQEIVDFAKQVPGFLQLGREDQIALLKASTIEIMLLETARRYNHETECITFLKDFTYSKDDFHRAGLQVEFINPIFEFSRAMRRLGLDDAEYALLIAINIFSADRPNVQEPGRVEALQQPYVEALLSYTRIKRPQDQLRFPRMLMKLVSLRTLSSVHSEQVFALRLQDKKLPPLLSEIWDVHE

Row | SMILES | concentration at 3 h [1] [ng/mL] | Activity (Mus musculus [2]) | Activity (Mus musculus [3]) | half-life [4] [h] | Activity [5] | Activity [6] | EC50 [7] [nM] | EC50 (THP-1 [8]) [nM] | Activity (THP-1 [9]) | Efficacy (HepG2) [%]
1 | O=C(O)Cc1cccc(OCCCN(Cc2cccc(C(F)(F)F)c2Cl)CC(c2ccccc2)c2ccccc2)c1 | 175 | Active | Active |  |  |  |  |  |  | 
2 | Cc1nc2c(C(F)(F)F)cccc2nc1-c1ccc(-c2cccc(S(C)(=O)=O)c2)cc1 |  |  |  | > 20 | inactive | inactive | 580 | 1090 | Dose-dependent effect | 7
